The values below are quoted from earlier work in patent US20240350389A1, “METHOD FOR DYEING KERATINOUS MATERIAL, IN PARTICULAR HUMAN HAIR” (HENKEL AG & CO. KGAA, priority 2021, published 2024).

For this series the following is noted: 25° C.

Consider `O=S(=O)([O-])c1ccc(N=Nc2c(O)ccc3ccccc23)cc1.[Na+]` [Acid Orange 7, sodium salt of 4-[(2-hydroxy-1-naphthyl)azo]benzene sulfonate], for which the solubility in water entry is “more than 7 g/L”.

For `Nc1cc(S(=O)(=O)[O-])cc2cc(S(=O)(=O)[O-])c(N=Nc3ccccc3)c(O)c12.[Na+].[Na+]` [Acid Red 33, disodium salt of 5-amino4-hydroxy-3-(phenylazo)-naphthalene2,7-disulfonate], the solubility in water was 2.5 g/L.

Consider `O=[N+]([O-])c1cc([N+](=O)[O-])c2ccc(S(=O)(=O)O)cc2c1O.[Na].[Na]` [Acid yellow 1, 8-hydroxy-5,7-dinitro-2-naphthalenesulfonic acid disodium], for which the solubility in water result was “at least 40 g/L”.

On to `CCN(Cc1cccc(S(=O)(=O)[O-])c1)c1ccc(C(=C2C=CC(=[N+](CC)Cc3cccc(S(=O)(=O)[O-])c3)C=C2)c2ccccc2S(=O)(=O)[O-])cc1.[Na+].[Na+]` [Acid Blue 9], for which the water solubility entry was “more than 20 wt %”.
